Data on eight molecules can be found in ChEMBL document CHEMBL1201862, “PubChem BioAssay data set” (2004).

Test systems include HOP-62; RXF 393; K562; SN12C; 786-0; OVCAR-8; MDA-MB-435; SF-539; CCRF-CEM; SW-620; LOX IMVI; HCC 2998; NCI-H226; HL-60; HCT-15; IGROV-1; SK-OV-3; A498; M14.
Assay in all cases: NCI anticancer screen, dose series, 48 h

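Cells were grown in 96-well plates and exposed to each compound for 48 hours at five concentrations; endpoints were interpolated linearly between bracketing concentrations, or set to the highest concentration if not reached. Here, GI50 denotes the concentration required for 50% inhibition of growth.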 Activity calls are given as the source filed them. Rule as the data show it: active = GI50 up to about 1.1 µM and inactive = higher.

Turning to `O=[N+]([O-])c1ccc2[nH]ncc2c1Cl`, the GI50 with HOP-62 was 50.6 µM (inactive); in the assay with RXF 393, 42.8 µM (inactive); in the assay with K562 it was 18.3 µM (inactive); in the assay with SN12C it was 31.7 µM (inactive); with 786-0, 36.3 µM (inactive); in the assay on OVCAR-8, 27.5 µM (inactive). Moreover, the GI50 with MDA-MB-435 is 36.1 µM (inactive); in the assay on SF-539 it was 36.7 µM (inactive); in the assay with CCRF-CEM, 46 µM (inactive); with SW-620, 31.6 µM (inactive); in the assay with LOX IMVI, 17.5 µM (inactive); with HCC 2998 it was 29.6 µM (inactive). Further, the GI50 in the assay with NCI-H226 is 8.69 µM (inactive); in the assay with HL-60, 29.8 µM (inactive); in the assay on HCT-15 it was 23.3 µM; in the assay on IGROV-1 it was 18 µM (inactive); in the assay with SK-OV-3, 53.5 µM (inactive); in the assay on A498, 74.6 µM (inactive).

Turning to `SC1CCCN(Cc2ccccc2)C1` (stereo not drawn), the GI50 with HOP-62 was > 100 µM (inactive); with RXF 393 it was > 100 µM (inactive); in the assay with K562, 23.8 µM (inactive); with SN12C, 95.3 µM (inactive); in the assay with 786-0, 35.7 µM (inactive); with OVCAR-8, 46.1 µM (inactive). Also, the GI50 in the assay with MDA-MB-435 was 31.6 µM (inactive); in the assay with SF-539 it was > 100 µM (inactive); in the assay with SW-620, 28.2 µM (inactive); in the assay on M14, 20 µM (inactive); in the assay on LOX IMVI it was 16.5 µM (inactive); in the assay on HCC 2998 it was 16.2 µM (inactive). The GI50 with NCI-H226 was > 100 µM (inactive); in the assay on HL-60, 34.8 µM (inactive); with HCT-15, 38.2 µM; in the assay with IGROV-1, 59.8 µM (inactive); in the assay with SK-OV-3 it was > 100 µM (inactive); in the assay on A498, 65.2 µM (inactive).

`C[C@H]1C2Cc3cc(N)ccc3[C@@]1(C)CCN2CCc1ccccc1`: the GI50 with HOP-62 is 39.5 µM (inactive); in the assay on RXF 393, 33.3 µM (inactive); in the assay with K562 it was 28.8 µM (inactive); in the assay with SN12C it was > 100 µM (inactive); in the assay on 786-0 it was 49.9 µM (inactive); in the assay on OVCAR-8 it was 62.5 µM (inactive). In addition, the GI50 was 41.9 µM (inactive) in the assay with MDA-MB-435; 45.2 µM (inactive) with SF-539; 33.2 µM (inactive) in the assay on CCRF-CEM; 64.7 µM (inactive) in the assay with SW-620; 20.9 µM (inactive) with M14; 20.2 µM (inactive) in the assay on LOX IMVI. Moreover, the GI50 was 9.08 µM (inactive) with HCC 2998; 58.7 µM (inactive) in the assay with NCI-H226; 28.9 µM (inactive) with HL-60; 25.2 µM with HCT-15; 41.9 µM (inactive) in the assay with IGROV-1; 24 µM (inactive) with SK-OV-3. Besides, the GI50 with A498 was 29.4 µM (inactive).

On to `COc1ccc(S(=O)(=O)Nc2ccc(-c3csc(N4C(=O)/C(=C/c5cccs5)N=C4c4ccccc4)n3)cc2)cc1Cl`, for which the GI50 was 4.08 µM (inactive) in the assay with HOP-62; 29.5 µM (inactive) in the assay on RXF 393; 38.7 µM (inactive) in the assay on K562; 66.2 µM (inactive) in the assay with SN12C; 57.5 µM (inactive) with 786-0; 34 µM (inactive) in the assay on OVCAR-8. Further, the GI50 in the assay with MDA-MB-435 is 44 µM (inactive); in the assay on SF-539, 54.2 µM (inactive); in the assay with SW-620 it was 50.9 µM (inactive); in the assay on M14, 34.7 µM (inactive); with LOX IMVI it was 37 µM (inactive); in the assay with HCC 2998 it was 44.7 µM (inactive). In addition, the GI50 with NCI-H226 was 65.5 µM (inactive); in the assay on HL-60, 24.5 µM (inactive); with HCT-15, 24.9 µM; in the assay on IGROV-1, 30.5 µM (inactive); with SK-OV-3, > 100 µM (inactive); in the assay with A498, 24.3 µM (inactive).

Consider `Cc1ccnc2c1C(=O)C1=C(OC(C)(C)CC1O)C2=O` (stereo not drawn), for which the GI50 was 3.37 µM (inactive) in the assay on HOP-62; 10.7 µM (inactive) in the assay on RXF 393; 2.99 µM (inactive) in the assay on K562; 3.21 µM (inactive) in the assay with SN12C; 4.08 µM (inactive) with 786-0; 2.83 µM (inactive) in the assay with OVCAR-8. Further, the GI50 in the assay with MDA-MB-435 was 1.32 µM (inactive); with SF-539, 3.41 µM (inactive); in the assay on CCRF-CEM it was 2.97 µM (inactive); with SW-620, 2.87 µM (inactive); in the assay with M14 it was 2.62 µM (inactive); in the assay with LOX IMVI, 2.56 µM (inactive). For the same molecule, the GI50 was 3.88 µM (inactive) with HCC 2998; 6.08 µM (inactive) in the assay with NCI-H226; 2.41 µM (inactive) in the assay on HL-60; 2.38 µM with HCT-15; 3.03 µM (inactive) in the assay with IGROV-1; 13.7 µM (inactive) in the assay with SK-OV-3. In addition, the GI50 in the assay on A498 was 15.3 µM (inactive).

Take `CC1=C(C(=O)OCCO[N+](=O)[O-])C(c2cccc([N+](=O)[O-])c2)C(C(=O)OC(C)C)=C(C)N1` (stereo not drawn): the GI50 in the assay with HOP-62 was 16.6 µM (inactive); in the assay with RXF 393, 13.8 µM (inactive); with K562, 18.2 µM (inactive); with SN12C, 17.4 µM (inactive); in the assay on 786-0, 13.3 µM (inactive); in the assay on OVCAR-8 it was 16.1 µM (inactive). Besides, the GI50 with MDA-MB-435 was 15.2 µM (inactive); in the assay with SF-539 it was 14.2 µM (inactive); in the assay with CCRF-CEM, 29.9 µM (inactive); in the assay with SW-620, 22.3 µM (inactive); with M14 it was 16 µM (inactive); in the assay with LOX IMVI, 16.9 µM (inactive). Moreover, the GI50 with HCC 2998 was 15.7 µM (inactive); with NCI-H226, 8.95 µM (inactive); in the assay on HL-60, > 100 µM (inactive); in the assay on HCT-15 it was 14.1 µM; in the assay on IGROV-1, 14 µM (inactive); with SK-OV-3, 16.7 µM (inactive). Further, the GI50 in the assay with A498 was 19.4 µM (inactive).

As for `COc1ccc(CNC2=N/C(=C\c3ccccc3Cl)C(=O)N2C)cc1`, the GI50 is 47.8 µM (inactive) with HOP-62; 31.8 µM (inactive) with RXF 393; 25.5 µM (inactive) with K562; 19.6 µM (inactive) with SN12C; 19.7 µM (inactive) in the assay with 786-0; 27.1 µM (inactive) in the assay with OVCAR-8. Besides, the GI50 is 19 µM (inactive) with MDA-MB-435; 24.6 µM (inactive) with SF-539; 19.5 µM (inactive) in the assay on SW-620; 17.9 µM (inactive) in the assay with M14; 20.1 µM (inactive) in the assay with LOX IMVI; 21.8 µM (inactive) in the assay with HCC 2998. The GI50 was 49.2 µM (inactive) with NCI-H226; 25.8 µM (inactive) in the assay on HL-60; 28.4 µM with HCT-15; 24.9 µM (inactive) with IGROV-1; 51.2 µM (inactive) in the assay on SK-OV-3; 25.7 µM (inactive) with A498.

For `C=CC(C)(C)NC(C(=O)N1CCC[C@H]1c1nc(-c2nc(C(=O)OCC=C(C)C)c(C)o2)c(C)o1)C(C)C` (stereo partly drawn), the GI50 in the assay on HOP-62 was > 100 µM (inactive); in the assay on RXF 393, > 55.2 µM (inactive); in the assay with K562, > 60.7 µM (inactive); in the assay on SN12C it was > 47.8 µM (inactive); with 786-0, > 58.1 µM (inactive); in the assay with OVCAR-8, > 58.6 µM (inactive). The GI50 is > 45.1 µM (inactive) in the assay with MDA-MB-435; > 48.2 µM (inactive) with SF-539; > 59.7 µM (inactive) in the assay on CCRF-CEM; 45.8 µM (inactive) with SW-620; > 62.2 µM (inactive) in the assay on M14; > 49.2 µM (inactive) in the assay on LOX IMVI. Besides, the GI50 is > 100 µM (inactive) in the assay with HCC 2998; > 48.8 µM (inactive) in the assay on NCI-H226; 17.1 µM (inactive) in the assay with HL-60; greater than 52.1 µM with HCT-15; 52.1 µM (inactive) in the assay with IGROV-1; > 83 µM (inactive) in the assay with SK-OV-3. Moreover, the GI50 in the assay with A498 was 47.1 µM (inactive).
